Data from PubChem BioAssay (NCI).
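The compound was tested at five concentrations on cells cultured in 96-well plates, with a 48-hour exposure period. Here, GI50 denotes the concentration required for 50% inhibition of growth. At the TGI there is no net growth.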

Tests used:
Assay in all cases: DTP human tumour cell line panel, 48 h
CAKI-1 renal = tested on: CAKI-1 renal
HCT-15 colon = tested on: HCT-15 colon
M14 melanoma = tested on: M14 melanoma
NCI-H226 lung = tested on: NCI-H226 lung
OVCAR-4 ovarian = tested on: OVCAR-4 ovarian
SF-268 CNS = tested on: SF-268 CNS
SK-MEL-2 melanoma = tested on: SK-MEL-2 melanoma
SNB-19 CNS = tested on: SNB-19 CNS
T-47D breast = tested on: T-47D breast
U251 CNS = tested on: U251 CNS

Row | SMILES | GI50 (CAKI-1 renal) | TGI (CAKI-1 renal) | GI50 (HCT-15 colon) | TGI (HCT-15 colon) | GI50 (M14 melanoma) | TGI (M14 melanoma) | GI50 (NCI-H226 lung) | TGI (NCI-H226 lung) | GI50 (OVCAR-4 ovarian) | TGI (OVCAR-4 ovarian) | GI50 (SF-268 CNS) | TGI (SF-268 CNS) | GI50 (SK-MEL-2 melanoma) | TGI (SK-MEL-2 melanoma) | GI50 (SNB-19 CNS) | TGI (SNB-19 CNS) | GI50 (T-47D breast) | TGI (T-47D breast) | GI50 (U251 CNS) | TGI (U251 CNS)
1 | O=C1c2cccc3c(N4CCN(c5ccc6c7c(cccc57)C(=O)N(CCN5CCNCC5)C6=O)CC4)ccc(c23)C(=O)N1CCN1CCNCC1 | 14.7 µM | 33 µM | 11.3 µM | 31.3 µM | 15 µM | 37.2 µM | 12.4 µM | 29 µM | 18.3 µM | 42.3 µM | 16.8 µM | 70.7 µM | 24.7 µM | 67.5 µM | 16.1 µM | 61.6 µM | > 100 µM | > 100 µM | 16.8 µM | 35.7 µM
2 | O=C(Oc1ccc([N+](=O)[O-])cc1)N1CCC(C(O)(c2ccc3c(c2)OCO3)c2ccc3c(c2)OCO3)CC1 | > 100 µM | > 100 µM | > 100 µM | > 100 µM | > 100 µM | > 100 µM | > 100 µM | > 100 µM | > 100 µM | > 100 µM | > 100 µM | > 100 µM | > 100 µM | > 100 µM | > 100 µM | > 100 µM | > 100 µM | > 100 µM | > 100 µM | > 100 µM
3 | O=C(O)[C@@H]1C[C@@H](O)CN1 | – | > 100 µM | – | > 100 µM | – | > 100 µM | – | > 100 µM | – | > 100 µM | – | > 100 µM | – | > 100 µM | – | > 100 µM | – | > 100 µM | – | > 100 µM
4 | O=C(N/N=C/c1cc2ccccc2c2ccccc12)c1cc(O)c(O)c(O)c1 | 3.72 µM | 19.1 µM | 3.22 µM | 25.4 µM | 4.34 µM | 18.2 µM | 4.47 µM | 28.4 µM | 2.38 µM | 35.8 µM | 3.74 µM | 14.7 µM | 4.25 µM | 15.9 µM | 3.6 µM | 18.7 µM | 2.23 µM | 7.24 µM | 2.96 µM | 14 µM
5 | COCCOC(C)C(/C=N/NC(N)=S)=N/NC(N)=S (stereo not drawn) | > 100 µM | > 100 µM | > 100 µM | > 100 µM | 0.0643 µM | > 100 µM | > 100 µM | > 100 µM | 0.0355 µM | > 100 µM | > 100 µM | > 100 µM | > 100 µM | > 100 µM | > 100 µM | > 100 µM | – | > 100 µM | > 100 µM | > 100 µM
6 | C=CC(=O)Nc1cc2c(Nc3ccc(OCc4ccccn4)c(Cl)c3)ncnc2cc1OCCN1CCOCC1 | 1.86 µM | 19.7 µM | 2.49 µM | 14.9 µM | 4.18 µM | 19.6 µM | 6.56 µM | > 83.6 µM | 5.9 µM | > 100 µM | 2.87 µM | > 65.9 µM | 6.11 µM | 37.5 µM | 3.65 µM | > 100 µM | < 0.0181 µM | > 100 µM | 4.65 µM | > 100 µM
7 | Nc1ccc(-c2ccc(-c3nc4ccccc4[nH]3)cc2)cc1 | – | > 54.7 µM | 8.09 µM | > 100 µM | 0.0328 µM | > 100 µM | 4.26 µM | 40.9 µM | 21.1 µM | 79.9 µM | 2.76 µM | > 100 µM | 1.88 µM | > 100 µM | 18.4 µM | > 100 µM | 3.89 µM | > 100 µM | 11.4 µM | 44.5 µM
8 | COc1cc(/C=C2\C(=O)N(c3c(Cl)cccc3Cl)c3ccccc32)cc(OC)c1O | 0.455 µM | 19.1 µM | 0.0682 µM | 11.2 µM | 1.03 µM | 15.6 µM | 7.91 µM | 29 µM | 1.69 µM | 12.1 µM | 0.413 µM | 14.6 µM | 1.23 µM | 15.4 µM | 0.742 µM | 19.3 µM | 2.89 µM | 17.8 µM | 0.315 µM | 13.5 µM
9 | CCC(=S)N(C)O | – | > 100 µM | – | > 100 µM | – | > 100 µM | – | > 100 µM | – | > 100 µM | – | > 100 µM | – | 86.6 µM | – | > 100 µM | – | > 100 µM | – | > 100 µM
